This note sets out measurements from US5677318A, “Diphenyl-1,2-3-thiadiazoles as anti-inflammatory agents” (Merck Frosst Canada, Inc., priority 1996, dated 1997).

In experiment [1] the target is T1, COX-1 (Homo sapiens, UniProt P23219).
T1 construct: platelets in whole blood contain a large amount of the COX-1 enzyme; endogenous in cells; host or cells: platelets in fresh human whole blood
Description: Human whole blood assay, COX-1 (clotting-induced TxB2 production). Format: cell-based. The settings on record: 1 hour at 37° C. As to the method: (§1) As well, platelets in whole blood contain a large amount of the COX-1 enzyme. Immediately following blood clotting, platelets are activated through a thrombin-mediated mechanism. This reaction results in the production of thromboxane B2 (TxB2) via activation of COX-1.
Aliquots of 500 μL were immediately transferred to siliconized microcentrifuge tubes preloaded with 2 μL of either DMSO or a test compound at final concentrations varying from 10 nM to 30 μM.
(§2) In the assay, inhibition is determined by measuring the amount of prostaglandin E2 (PGE2) synthesized in the presence of arachidonic acid, COX-1 or COX-2 and a putative inhibitor.

Experiment [2] concerns the target T2, COX-2 (Homo sapiens, UniProt P35354).
T2 construct: incubation of human whole blood with LPS which induces COX-2; endogenous in cells; host or cells: LPS-stimulated fresh human whole blood (blood cells not specified)
T2 sequence (P35354 18-604): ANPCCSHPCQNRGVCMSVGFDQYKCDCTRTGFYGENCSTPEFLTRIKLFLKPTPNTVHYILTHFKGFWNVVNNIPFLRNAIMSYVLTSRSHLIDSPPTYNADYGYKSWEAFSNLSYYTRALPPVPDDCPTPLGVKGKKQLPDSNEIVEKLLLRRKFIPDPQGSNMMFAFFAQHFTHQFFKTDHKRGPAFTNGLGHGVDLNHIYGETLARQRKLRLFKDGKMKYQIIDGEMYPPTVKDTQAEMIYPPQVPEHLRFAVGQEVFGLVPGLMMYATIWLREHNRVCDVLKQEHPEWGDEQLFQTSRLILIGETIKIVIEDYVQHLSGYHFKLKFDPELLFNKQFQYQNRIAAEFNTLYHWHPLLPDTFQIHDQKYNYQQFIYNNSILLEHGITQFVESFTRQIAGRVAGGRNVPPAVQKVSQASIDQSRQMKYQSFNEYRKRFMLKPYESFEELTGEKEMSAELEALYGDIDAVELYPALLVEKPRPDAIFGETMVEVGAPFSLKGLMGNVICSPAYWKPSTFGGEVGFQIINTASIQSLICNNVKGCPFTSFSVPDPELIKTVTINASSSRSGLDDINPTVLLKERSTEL
Description: Human whole blood assay, COX-2 (LPS-induced PGE2 production). The experiment is classed as cell-based. The settings on record: 24 hours at 37° C.
Excerpt: as §1
Fresh blood was collected in heparinized tubes by venipuncture from both male and female volunteers. The subjects had no apparent inflammatory conditions and had not taken any NSAIDs for at least 7 days prior to blood collection. Plasma was immediately obtained from a 2 mL blood aliquot to use as blank (basal levels of PGE2).
as §2

The test system of experiment [3] is rat paw edema. Description: Rat paw edema assay (carrageenan). To be noted: po, 1 hr before subplantar carrageenan, paw volume at 3 hr, read-out: ED50 (edema inhibition in rat paw). The experiment is classed as in vivo, Male Sprague-Dawley rats. The procedure:
Male Sprague-Dawley rats (150-200 g) were fasted overnight and were given, po, either vehicle (1% methocel or 5% Tween 80), or a test compound. One hr later, a line was drawn using a permanent marker at the level above the ankle in one hind paw to define the area of the paw to be monitored. The paw volume (V0) was measured using a plethysmometer (Ugo-Basile, Italy) based on the principle of water displacement. The animals were then injected subplantarly with 50 μl of 1% carrageenan solution in saline (FMC Corp, Maine) into the paw using an insulin syringe with a 25-gauge needle (i.e., 500 μg carrageenan per paw). Three hr later, the paw volume (V3) was measured and the increases in paw volume (V3 -V0) were calculated. The animals were sacrificed by CO2 asphyxiation and the absence or presence of stomach lesions scored. Data were compared with the vehicle-control values and percent inhibition calculated. ED50 values were used for comparison. All treatment groups were coded to eliminate observer bias.

T1 sequence (P23219 24-599): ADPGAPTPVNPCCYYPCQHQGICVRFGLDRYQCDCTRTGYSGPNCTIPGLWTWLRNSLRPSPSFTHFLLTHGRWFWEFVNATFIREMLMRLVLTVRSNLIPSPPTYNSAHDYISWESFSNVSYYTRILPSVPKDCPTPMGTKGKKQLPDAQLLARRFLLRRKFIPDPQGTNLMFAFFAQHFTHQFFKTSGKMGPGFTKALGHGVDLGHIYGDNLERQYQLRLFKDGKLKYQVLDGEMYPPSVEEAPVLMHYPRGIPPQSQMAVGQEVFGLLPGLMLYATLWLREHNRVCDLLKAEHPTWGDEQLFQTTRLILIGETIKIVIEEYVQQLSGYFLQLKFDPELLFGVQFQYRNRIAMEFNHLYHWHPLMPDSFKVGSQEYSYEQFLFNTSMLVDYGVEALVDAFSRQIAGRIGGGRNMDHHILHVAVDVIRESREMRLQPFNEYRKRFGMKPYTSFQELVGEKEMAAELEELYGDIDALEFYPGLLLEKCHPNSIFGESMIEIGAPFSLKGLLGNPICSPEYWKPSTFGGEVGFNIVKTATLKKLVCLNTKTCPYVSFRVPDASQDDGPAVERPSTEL

Turning to `CS(=O)(=O)c1ccc(-c2snnc2-c2ccc(F)cc2)cc1` [Example 2], the IC50 in experiment [1] is 20 µM; in experiment [2] it was 2.8 µM. Besides, in experiment [3], the ED50 was 0.5 mg/kg.
With `CS(=O)(=O)c1ccc(-c2snnc2-c2cccc(F)c2)cc1` [Example 3], the IC50 turned out to be 63 µM in experiment [1] and 1.3 µM in experiment [2].
On to `COc1ccc2c(c1)c(CC(=O)O)c(C)n2C(=O)c1ccc(Cl)cc1` [Indomethacin, indomethacin, reference compound], for which the ED50 in experiment [3] worked out at 2 mg/kg.

A word on the IC50: it is the concentration at which inhibition is half-maximal. In general, ED50 refers to the midpoint of the dose-response relation.
